Reference: article PMC5557808 (Nature Communications, 2017)
One block for each compound: values may come before it. Where a SMILES comes first, the peptide text is derived from it. The star is where a group is joined. X1 = CC[N+](CC)(CC(=O)Nc1c(C)cccc1C)Cc1cccc(C(=O)*)c1

Experiments:
MMP-8 [1] = target: T1, MMP-8 (Homo sapiens, UniProt P22894); experiment: MMP-8 cleavage of soluble PCL conjugates (HPLC decrease of main peak); type: biochemical; conditions: up to 12 h; control PCLs; MMP-8 buffer pH 6.8-7.0, 37 °C
T1 construct: purchased EMD Millipore Corporation (Billerica, MA)
Experimental: Pro-MMPs (e.g., MMP-8, MMP-1, or MMP-9; used at 0.1 mg/mL and >100.0 mU/mg based on the manufacturer’s information) were activated with p-aminophenylmercuric acetate (APMA) (8). For that, a 10 mM stock solution of APMA was freshly prepared in 0.1 M NaOH and a 10:1 (v/v) ratio of the respective proenzyme and the APMA solution (MMP:APMA) was incubated for 3 h at 37 °C. The activity was confirmed using the MMP-8 detection kit (QuickZyme Biosciences, Leiden, the Netherlands). A stock solution (90 µg/mL) of the activated MMP was prepared (used for cleavage studies on the PCL or the fully assembled microparticle-PCL-tastant setup (sensor), in MMP-8 buffer (200 mM NaCl, 50 mM Tris-HCl, 5 mM CaCl2, 1 µM ZnCl2, 0.05% Brij 35 at pH 6.8–7.0). All MMP experiments are described in detail in the Supplementary Methods. […]
in water ( v/v)) and eluent B (0.1 % TFA in 2:3 water-acetonitrile (v/v)) and a gradient from 33 to 80% elu ent B within 30 minutes. UV absorption was r ead at λ = 280 nm or 220 nm. After freezing the samples at -80 °C, fr eeze- drying was performed on a Christ Alpha 1 -4 de vi ce (Martin Christ Gefriertrocknungs anlagen, Osterode am Harz, G e r ma n y) at a desublimers ’ te mperature of - 60 ° C, pressure of 1.030 mbar and processing temperature of 19 °C.
Pro-MMPs (e. g. MMP -8, MMP -1 or MMP-9; adapted to 0.1 mg/mL and > 100.0 mU/mg based on manufacturer information and when appropriate) were activated with APMA 8. For that, a 10 mM stock solution of APMA in 0.1 M NaOH was freshly prepared and a 10:1 (v/v) ratio of the r especti ve proenzyme and APMA solution (MMP:APMA) was incubated for 3 h at 37 °C. The activity was conf ir med using the MMP-8 detection kit (Q uic kZ ym e® Biosciences, Leiden, Netherlands). A stock solution (90 µg/mL) of the activated MMP was prepared (used for cleavage studies on the pr ot eas e-cleavable linker (PCL; e.g. Figure 2) or the fully assemb led microparticle -PCL- t ast ant setup (sensor; e.g. Figure 3) , in MMP -8 buffer (200 mM NaCl, 50 mM Tris-H Cl, 5 mM C aC l2, 1 µM ZnCl2, 0.05 % Brij35 at pH 6.8- 7.0). A ll MMP -8 exp eriments wer e performed as follo ws. 25 µg of the sensor ( see chap ter : Peptide-coupling to beads (Sensor)) in 100 µL MMP-buffer or 1 mg of FP LC -purified and lyophilized PCL as described dissolved 2 mL M MP -buffer resulting in a final concentration of 0.5 mg/ mL substrate was used. […]
Figure 2A , 3, 4B ). […]
(sensor) in co mpar ison to negative controls (the negative controls for the PCL an d sensor exper i men ts were b y incubation without MMP under otherwise identical conditions). The relative d ecreas e of the PCL’s ma in peak was char act er ized by HPLC (PCL) or of the sensor’s fluorescence b y FACS (sensor) in comparison to control. […]

[2] = target: T2, Leucine aminopeptidase (AP) (Sus scrofa, UniProt P15145); experiment: Aminopeptidase (AP) incubation; type: biochemical, porcine
T2 construct: Leucine aminopeptidase (AP; Mw = 280 kDa) from porcine kidney; purchased Sigma-Aldrich Chemie, Schnelldorf, Germany; host or cells: porcine kidney (tissue-derived)
T2 sequence (P15145 1-963): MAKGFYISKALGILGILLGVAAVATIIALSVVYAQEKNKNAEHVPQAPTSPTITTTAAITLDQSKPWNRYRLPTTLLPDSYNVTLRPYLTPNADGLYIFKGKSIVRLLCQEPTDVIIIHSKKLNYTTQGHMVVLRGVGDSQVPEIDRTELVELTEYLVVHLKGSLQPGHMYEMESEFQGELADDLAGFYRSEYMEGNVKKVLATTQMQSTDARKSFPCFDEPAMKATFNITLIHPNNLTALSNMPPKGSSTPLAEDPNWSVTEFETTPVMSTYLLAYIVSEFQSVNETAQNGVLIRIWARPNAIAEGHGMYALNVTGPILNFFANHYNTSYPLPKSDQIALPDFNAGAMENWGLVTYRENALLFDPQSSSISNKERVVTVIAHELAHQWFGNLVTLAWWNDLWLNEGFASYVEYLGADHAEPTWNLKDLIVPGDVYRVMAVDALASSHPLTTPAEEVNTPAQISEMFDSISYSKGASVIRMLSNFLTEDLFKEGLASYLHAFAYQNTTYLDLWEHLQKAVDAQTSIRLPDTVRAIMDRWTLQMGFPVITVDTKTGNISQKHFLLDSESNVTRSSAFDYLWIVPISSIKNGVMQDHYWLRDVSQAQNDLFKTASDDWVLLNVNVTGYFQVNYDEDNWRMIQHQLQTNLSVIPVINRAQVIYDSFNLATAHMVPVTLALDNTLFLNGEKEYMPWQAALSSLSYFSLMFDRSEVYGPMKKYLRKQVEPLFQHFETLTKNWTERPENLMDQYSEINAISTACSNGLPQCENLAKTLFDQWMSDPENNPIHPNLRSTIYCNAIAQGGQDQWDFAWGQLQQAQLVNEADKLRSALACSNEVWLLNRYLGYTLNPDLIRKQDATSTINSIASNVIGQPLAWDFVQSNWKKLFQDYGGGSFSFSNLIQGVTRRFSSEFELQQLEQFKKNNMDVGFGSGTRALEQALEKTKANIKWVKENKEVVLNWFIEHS
Experimental: Leucine aminopeptidase (AP; Mw = 280 kDa) from porcine kidney dissolved in AP buffer (50 mM Tris-HCl, 1 mM CaCl2, and 150 mM NaCl at pH 7.0) was used. L-leucine-p-nitroanilide (0.125 mg/mL) was used as control substrate. For AP digestion, 1 mg of purified lyophilized peptide was diluted in 2 mL AP buffer resulting in a final concentration of 0.5 mg/mL substrate. To evaluate the impact of AP concentration on peptide cleavage, AP was added at concentrations of 0 (negative control), 0.87, 8.7, 39, and 78 µg/mL and the samples were incubated at 37 °C for 1 h. For analysis of the AP incubation time, an AP concentration of 0.87 µg/mL was used and analyzed after 10, 20 min and 1, 2, 3, and 6 h. To stop the enzyme activity, samples were kept at 95 °C for 15 min. Afterwards, HPLC analyses were performed (as described in the Supplementary Information) to analyze the relative decrease of the main peak as compared to the negative control. Further details are given in the Supplementary Methods.
MMP -9) in a concentration of 0.4 ng/µL (50 µL) were mixed with MMP -8 buffer (37 µL), detection enz yme (5 µL) and substrate (8µL; all fro m Q uic kZ yme® ). The acti vi t y was meas ur ed for 12 hours in inter vals of 10 minutes. […]
Aminopeptidase (AP) incubation
Leucine A minopeptidase (AP; M w = 280 kD a) from porcine kidney dissolved in AP buffer (50 mM Tris-HCl, 1 mM CaCl2 and 150 mM NaCl at pH 7.0) was used. L-leu cin e-p-nitroan ilide (0.125mg/ mL) was used as control substr at e. […] Fo r anal ysis of the impact of AP incubation time, the identical conditions were used (AP concentration of 0.87 µg / mL (and analyzed after 10, 20 minutes and 1, 2, 3 and 6 hours ). To stop the enzymatic activit y, sa mp les wer e kept at 95 °C for 15 minutes. A fterwards, H PLC analys es were p erformed (as descr ibed) to an al yze th e relative d ecr eas e of the ma i n pea k as co mp ared to the negative control (see […]
V(B)/(V(A)+V(B)) = 5 % to 90 % over 10 min, V(B)/(V(A)+V(B)) = 90 % for 5 min, V(B)/(V(A)+V(B)) = 90 % to 5 % over 3 min. […] UV detection was measured at 254 nm. […]

MMP-8 [3] = experiment: MMP-8 buffer (200 mM NaCl, 50 mM Tris-HCl, 5 mM CaCl2, 1 µM ZnCl2, 0.05% Brij 35 at pH 6.8–7.0); conditions: human, 37 °C, up to 6 hours
[4] = system: MMP-8, then leucine aminopeptidase (AP); experiment: MMP-8 for 22 h, followed by exposure to AP in AP buffer; conditions: porcine kidney (AP), 37 °C, up to 22 h MMP + 30 minutes AP
MMP-8 [5] = experiment: MMP-8 in MMP-8 buffer; conditions: human, 37 °C, up to 22 h
MMP-8 [6] = experiment: MMP-8; conditions: human, up to 12 h

T1 sequence (P22894 101-467): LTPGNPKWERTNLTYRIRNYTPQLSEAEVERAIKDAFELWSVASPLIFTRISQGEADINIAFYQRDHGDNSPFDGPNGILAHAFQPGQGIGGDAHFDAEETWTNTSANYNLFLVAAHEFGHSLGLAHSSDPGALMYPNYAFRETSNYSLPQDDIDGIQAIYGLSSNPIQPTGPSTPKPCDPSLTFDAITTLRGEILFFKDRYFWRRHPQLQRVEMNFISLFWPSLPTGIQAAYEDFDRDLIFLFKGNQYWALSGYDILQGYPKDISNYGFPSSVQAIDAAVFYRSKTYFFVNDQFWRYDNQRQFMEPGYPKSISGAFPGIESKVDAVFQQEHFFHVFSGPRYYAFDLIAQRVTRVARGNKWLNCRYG

cleaved bond (MMP-8 [3]): G-I
fragment found [4]: denatonium coupled lysin
cleaved bond (MMP-8 [5]): G-I
Compound: A( N3)-GPQGIA GQ-K-De

cleaved bond (MMP-8 [3]): G-I
Compound: Cf-GP QGIA GQ-A( N3)-Q

not cleaved (MMP-8 [6]): not cleaved by MMP-8 up to 12 h
Compound: Cf-GPQGYAGQ-A( N3)-Q

Second part, the compound before the results:

Compound: Cf-GPLGI AGQ-A( N3)-Q [ID #3, control PCL, exchange Q3L]
cleavage by MMP-8 (MMP-8 [1]): not cleaved

Compound: CC[C@H](C)[C@H](N)C(=O)N[C@@H](C)C(=O)NCC(=O)N[C@@H](CCC(N)=O)C(=O)N[C@@H](CCCCNC(=O)c1cccc(C[N+](CC)(CC)CC(=O)Nc2c(C)cccc2C)c1)C(N)=O [ID #5a] (H-IAGQK(X1)-NH2)
cleavage of the peptide denatonium fragment by aminopeptidase ([2]; 870 ng/mL AP, within 250 min, 0.5 mg/mL substrate, AP buffer pH 7.0, 37 °C, HPLC, n = 5): 80%

Compound: Cf-GPLGI AGQ-A( N3)-Q
not cleaved (MMP-8 [6]): not cleaved by MMP-8 up to 12 h

Compound: A( N3)-GPQGIA GQ-K-De [ID #5, second-generation PCL denatonium conjugate]
effect of additional AP incubation after complete MMP-8 cleavage ([2]; AP 3.1 nM (0.87 µg/mL), 30 min, 37 °C, after 22 h with 1800 ng/mL MMP-8, LC-MS): emerging peaks

Compound: De-GPQG
not cleaved [4]: no difference after additional AP incubation for 30 minutes

Compound: Cf-GPQGYAGQ-A( N3)-Q [ID #4, control PCL, exchange I5Y]
cleavage by MMP-8 (MMP-8 [1]): not cleaved
